In patent US20240216313A1, “ELAFIBRANOR DERIVATIVES AGONISTS OF PPAR FOR USE IN THE TREATMENT OF SEPSIS” (Genfit, priority 2021, published 2024):
Read-outs that look alike come from different tables or passages of the source.

Legend:
HepG2 cells = assay: Staurosporin-induced apoptosis in HepG2 cells (caspase 3/7 activity, Caspase Glo); type: cell-based, human; details: 16 h pre-treatment, then 10 μM staurosporin 4 h; for inhibition at 0.3 µM: Homo sapiens, HepG2, 0.3 μM, read-out: % Inhibition of caspase activity over mean Veh.
Experimental: In order to evaluate the effect of the compounds on human hepatocytes that undergo a cellular stress induced by staurosporin, the human hepatoblastoma-derived HepG2 cell line (ECACC, #85011430, Sigma-Aldrich) was cultured in high-glucose DMEM medium (#41965, Gibco, France) supplemented with 10% of fetal bovine serum (FBS, #10270, Gibco), 1% penicillin/streptomycin (#15140, Gibco), 1% sodium pyruvate (#11360, Gibco) and 1% MEM non-essential amino acids (#11140, Gibco) in a 5% CO2 incubator at 37° C.
To evaluate caspase 3/7 activity, which is a surrogate marker of apoptosis, 1.5×10^4 cells were plated in a 384-well plate (#781080, Greiner, France). After cell adherence (8 hours), cells were serum starved for 16 h in the presence of 0.3 μM of compounds or vehicle. Cpd.1 was also used at 3 and 10 μM. Thereafter, cells were treated with 10 μM staurosporin (#569397, Sigma-Aldrich, Germany) supplemented with compound for additional 4 hours before cell lysis and caspase activity measurement.
Caspase 3/7 activity was measured using Caspase Glow™ 3/7 assay (#G8093, Promega, USA). Luminescence was measured using a Spark microplate reader (#30086376, Tecan, USA). The amount of luminescence (RLU) directly correlates with caspase 3/7 activity.

[1] = system: THP1 differentiated macrophages; assay: Macrophage activation: cytokine production by THP1 differentiated macrophages stimulated with LPS (E. coli O55:B5); type: cell-based, human; details: compound 24 h, then 100 ng/mL LPS E. coli 6 h
Experimental: (§1) In order to test the efficacy of the compounds on macrophage activation and pro-inflammatory cytokine production, 2.5×10^4 THP-1 cells were cultured in a 384-well plate and treated with 100 ng/mL PMA (#P8139, Sigma) for 24 h to induce differentiation into macrophages.
Then, medium was removed and FBS-deprived medium containing the compound of formula (I) was added for 24 h. Finally, THP1 macrophages were stimulated with 100 ng/mL LPS (E. coli O55:B5, #L4005, Sigma) for 6 h.

[2] = system: CLP induced polymicrobial sepsis; assay: Cecal ligation and puncture (CLP) model of polymicrobial sepsis: survival; type: in vivo, C57BL6J male mice; details: mice, 0.3 mg/kg p.o.
Experimental: This study aims to investigate the efficacy of Cpd.1 in cecal ligation and puncture (CLP) model in C57BL6J (BL6) male mice. The efficacy of the test compound was evaluated based on the survival rate of the animals within the study period.
C57BL6J male mice (supplier Janvier—France) at 9 weeks of age and weighing 23-25 g on arrival were anesthetized with 250 μL of xylazine/ketamine solution (20 mg/100 g body weight) by intraperitoneal route. A 1-1.5 cm abdominal midline incision was made, and the caecum was located and tightly ligated at half the distance between distal pole and the base of the cecum with 4-0 silk suture (mild grade). The caecum was punctured through-and-through once with a 21-gauge needle from mesenteric toward antimesenteric direction after medium ligation. A small amount of stool was extruded to ensure that the wounds were patent. Then the cecum was replaced in its original position within the abdomen, which was closed with sutures and wound clips. Mice were followed for body weight evolution and mortality rate until Day 6.
Cpd.1 or vehicle (Labrafil M 1944 CS, #3063, Gattefossé) was administrated at 0.3 mg/kg, p.o. for three days before CLP surgery. The day of CLP (day 0), Cpd.1 was administrated 1 h before surgery and pursued daily until day 6. Experiment was terminated at day 7.
Two groups of C57BL6J mice at the age of 9 weeks were treated as described above. • 1. […]

LPS-induced endotoxemia = assay: Preclinical model of endotoxemia: hepatic markers (total bilirubin, albumin) and TNFα in rat serum; type: in vivo, male Sprague Dawley rats; details: rats, 3 mg/kg/day oral gavage 3 days before LPS, blood 3 h after LPS
THP1 macrophages = assay: Macrophage activation: MCP1 and TNFα secretion induced by LPS from Klebsiella in THP1 macrophages (HTRF); type: cell-based, human; details: 24 h, then LPS Klebsiella 6 h; for inhibition at 10 µM / inhibition at 1 µM: Homo sapiens; for inhibition at 10 µM: THP-1, 10 μM; for inhibition at 1 µM: THP-1, 1 μM
Experimental: as §1
Then, medium was removed and FBS-deprived medium containing 1 or 10 μM compound was added for 24 h. Finally, THP1 macrophages were stimulated for 6 h with 100 ng/mL LPS (Klebsiella pneumoniae, #L4268, Sigma-Aldrich).
Monocyte chemoattractant protein 1 (MCP1) and […] (TNFα) were measured in cell supernatants by Homogeneous Time Resolved Fluorescence (HTRF, #62[…] for TNFα, and 62HCCL2PEG for MCP1, Cisbio). Fluorescence was measured with Infinite 500 (#30019337, Tecan) to determine the concentration of cytokines.

[3] = read-out: % inhibition of MCP1 secretion over mean Veh.
[4] = read-out: % inhibition of TNFα secretion over mean Veh.

COC(CCc1cc(C)c(OC(C)(C)C(=O)O)c(C)c1)c1ccc(OC(F)(F)F)cc1 (stereo not drawn) [Cpd. 1, 2-[4-(3-methoxy-3-(4-(trifluoromethoxy)phenyl)propyl)-2,6-dimethylphenoxy]-2-methylpropanoic acid] was tested, and the “reduction of staurosporin-induced caspase activity, dose dependence” value (HepG2 cells; 0.3, 3 and 10 μM) was “reduced caspase activity induced by staurosporin in a dose-dependent manner”, the “reduction of TNFα secretion” value [1] was “potent at reducing TNFα” and the “reduction of MCP1 secretion” value ([1]; all doses tested) was “overpassing the untreated condition for MCP1 secretion at all doses tested”. The “side effect recorded after each administration” value [2] was “No side effect” and the “serum total bilirubin level compared to the vehicle condition” value (LPS-induced endotoxemia) was “completely restored the level of total bilirubin”.
Cc1cc(CCC(=O)c2ccc(OC(F)(F)F)cc2)cc(C)c1OC(C)(C)C(=O)O [Cpd. 2, 2-[2,6-dimethyl-4-[3-[4-(trifluoromethyloxy)phenyl]-3-oxo-propyl]phenoxy]-2-methylpropanoic acid] showed an inhibition at 10 µM (THP1 macrophages; [3]) of 106% and an inhibition at 0.3 µM (HepG2 cells) of 70%.
Molecule Cc1cc(CCC(=O)c2ccc(C(F)(F)F)cc2)cc(C)c1OC(C)(C)C(=O)O [Cpd. 3, 2-[2,6-dimethyl-4-[3-[4-(trifluoromethyl)phenyl]-3-oxo-propyl]phenoxy]-2-methylpropanoic acid] has an inhibition at 10 µM (THP1 macrophages; [3]) of 107% and an inhibition at 10 µM (THP1 macrophages; [4]) of 20%.
With CSc1ccc(C(CCc2cc(C)c(OC(C)(C)C(=O)O)c(C)c2)OC(C)C)cc1 (stereo not drawn) [Cpd. 5, 2-[2,6-dimethyl-4-[3-[4-(methylthio)phenyl]-3-isopropyloxypropyl]phenoxy]-2-methylpropanoic acid] the inhibition at 10 µM (THP1 macrophages; [3]) was 110%.
In the case of Cc1cc(CCC(O)c2ccc(OC(F)(F)F)cc2)cc(C)c1OC(C)(C)C(=O)O (stereo not drawn) [Cpd. 6, 2-(4-(3-hydroxy-3-(4-(trifluoromethoxy)phenyl)propyl)-2,6-dimethylphenoxy)-2-methylpropanoic acid], the inhibition at 10 µM (THP1 macrophages; [3]) is reported as 103% and the inhibition at 0.3 µM (HepG2 cells) is reported as 43%.
CON=C(CCc1cc(C)c(OC(C)(C)C(=O)O)c(C)c1)c1ccc(OC(F)(F)F)cc1 [Cpd. 7, 2-(4-(3-(methoxyimino)-3-(4-(trifluoromethoxy)phenyl)propyl)-2,6-dimethylphenoxy)-2-methylpropanoic acid] gave an inhibition at 10 µM (THP1 macrophages; [3]) of 107%, an inhibition at 10 µM (THP1 macrophages; [4]) of 42% and an inhibition at 0.3 µM (HepG2 cells) of 66%.
For CCOC(CCc1ccc(OC(C)(C)C(=O)O)c(Cl)c1Cl)c1sc(-c2ccc(C(F)(F)F)cc2)nc1C (stereo not drawn) [Cpd. 9, 2-(2,3-dichloro-4-(3-ethoxy-3-(4-methyl-2-(4-(trifluoromethyl)-phenyl)thiazol-5-yl)propyl)phenoxy)-2-methylpropanoic acid], the inhibition at 10 µM (THP1 macrophages; [3]) was 127% and the inhibition at 10 µM (THP1 macrophages; [4]) was 77%.
COC(CCc1cc(C)c(OC(C)(C)C(=O)O)c(C)c1)c1ccc(SC)cc1 (stereo not drawn) [Cpd. 13, 2-[2,6-dimethyl-4-[3-[4-(methylthio)phenyl]-3-methoxypropyl]phenoxy]-2-methylpropanoic acid] showed an inhibition at 1 µM (THP1 macrophages; [3]) of 99%, an inhibition at 1 µM (THP1 macrophages; [4]) of 0% and an inhibition at 10 µM (THP1 macrophages; [3]) of 111%. For the same molecule, the inhibition at 10 µM (THP1 macrophages; [4]) was 18% and the “% Inhibition of caspase activity over mean Veh.” value (HepG2 cells; 0.3 μM) was 79%.
In the case of COC(CCc1cc(C)c(OC(C)(C)C(=O)O)c(C)c1)c1ccc(Br)cc1 (stereo not drawn) [Cpd. 14, 2-[2,6-dimethyl-4-[3-[4-bromophenyl]-3-methoxypropyl]phenoxy]-2-methylpropanoic acid], the inhibition at 10 µM (THP1 macrophages; [3]) is reported as 107%, the inhibition at 10 µM (THP1 macrophages; [4]) is reported as 28% and the inhibition at 0.3 µM (HepG2 cells) is reported as 77%.
For CC(C)(Oc1ccc(CCNC(=O)c2ccc(Cl)cc2)cc1)C(=O)O [Cpd. 17, bezafibrate, reference compound], the inhibition at 10 µM (THP1 macrophages; [3]) was 54%.
With CC[C@@H](Oc1cccc(CN(CCCOc2ccc(OC)cc2)c2nc3ccccc3o2)c1)C(=O)O [Cpd. 18, pemafibrate, reference compound] the inhibition at 10 µM (THP1 macrophages; [3]) was 123%.
For CCc1ccc(CCOc2ccc(CC3SC(=O)NC3=O)cc2)nc1 (stereo not drawn) [Cpd. 21, pioglitazone, reference compound], the inhibition at 10 µM (THP1 macrophages; [3]) was 121%, the inhibition at 10 µM (THP1 macrophages; [4]) was 19% and the inhibition at 0.3 µM (HepG2 cells) was 60%.
For CN(CCOc1ccc(CC2SC(=O)NC2=O)cc1)c1ccccn1 (stereo not drawn) [Cpd. 22, rosiglitazone, reference compound], the “% inhibition of MCP1 secretion over mean Veh.” value (THP1 macrophages; 1 μM) was 79%, the “% inhibition of TNFα secretion over mean Veh.” value (THP1 macrophages; 1 μM) was 36% and the “% inhibition of MCP1 secretion over mean Veh.” value (THP1 macrophages; 10 μM) was 117%. The “% inhibition of TNFα secretion over mean Veh.” value (THP1 macrophages; 10 μM) was 11%.
Molecule O=C(O)CCCc1cc2cc(Cl)ccc2n1S(=O)(=O)c1ccc2ncsc2c1 [Cpd. 23, lanifibranor, reference compound] has an inhibition at 10 µM (THP1 macrophages; [3]) of 126% and an inhibition at 10 µM (THP1 macrophages; [4]) of 32%.
